According to publication PMC12935919 (Frontiers in Pharmacology, 2026):
No end group written: not given here.

Experiments:
[1] = system: patients with muscle atrophy (ICD-10-CM code: M62.5); test: Clinical trial: 6-m walk test; assay type: in vivo, human
Description: The study was conducted at Biosite Research Private Limited (Shanthipura, India) under the New Drugs and Clinical Trials Rules (2019) issued by CDSCO (Ministry of Health and Family Welfare, Government of India), and in compliance with GCP, applicable local regulatory requirements, the Declaration of Helsinki ([…]), ICMR guidelines (2017), and ICH-GCP E6 (R2). Ethical approval was obtained from the Excel Hospital Institutional Ethics Committee (ECR/1670/Inst/TG/2022) and ethics committees of other participating centers, and the trial was prospectively registered (CTRI/2024/01/061919). All participants provided written informed consent prior to any study procedures. […] Efficacy endpoints were evaluated as changes from baseline to Week 12; efficacy analyses were conducted in the per-protocol population, and safety analyses included all randomized participants who received at least one dose of study product (Supplementary Figure S2). […] Continuous variables were summarized as N, mean (SD), median, minimum, and maximum, and categorical variables as n (%), with percentages calculated as n/N × 100. Changes from baseline to Week 12 in DEXA-assessed muscle mass, 6-m walk test, and handgrip strength were analyzed using ANCOVA, adjusting for the corresponding baseline value. […]

C2C12 cells = test: Preliminary screening of candidate peptides; assay type: cell-based
From the text: Supplementary Figure 1. […] Western blot images from the screening experiment are shown, and the summary table indicates peptides that met each criterion (O, yes; X, no; –, not determined).

[2] = molecular target: T1, human recombinant Myostatin-Fc protein (Mus musculus, UniProt O08689); test: Surface plasmon resonance (SPR) analysis, Biacore T200; assay type: binding; settings: 3.125 μM to 200 μM, 25 °C, HBS-EP
T1 construct: purchased Sino Biological 50441-M01H
T1 sequence (O08689 268-376): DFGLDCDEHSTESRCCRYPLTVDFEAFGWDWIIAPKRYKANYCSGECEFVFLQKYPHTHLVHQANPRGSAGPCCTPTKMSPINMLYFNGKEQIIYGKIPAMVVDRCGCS
Description: The human recombinant Myostatin-Fc protein (Sino Biological, #50441-M01H) was immobilized on the surface of a CM5 sensor chip at 2210.3 response units (RUs) using an EDC/NHS amine coupling kit, following the manufacturer’s instructions. […] Data analysis was performed using Biacore T200 Evaluation Software version 3.1 (Cytiva).

C2C12 myotubes = test: DEX-induced muscle atrophy model, Western blot; assay type: cell-based; settings: 10 μM DEX 24 h, alone or with 10 or 100 μM Myoki
Description: To induce C2C12 myotube differentiation, myoblasts were seeded in 6-well plates at 5 × 10^5 cells per well. Once reaching 90% confluency, they were cultured in DMEM supplemented with 2% horse serum (Thermo Fisher Scientific) and 1% penicillin-streptomycin. […] Differentiation was observed using an optical microscope (LEICA, 100×). Myotube morphology (length and diameter) was quantified in ImageJ (NIH) using the same images: myotube length was measured by tracing the long axis of each myotube (end-to-end), and myotube diameter was measured as the short-axis width at three positions along each myotube; the mean of the three width values was recorded as the diameter. For each experimental group, three randomly captured images (fields) were analyzed, and at least 15–20 myotubes per image were quantified under identical imaging settings.
Treated C2C12 cells (5 × 10^5 cells/well) were harvested in lysis buffer (Sigma-Aldrich, 2910) and centrifuged at 12,000 g for 10 min; proteins in the supernatant were collected. Protein concentrations were measured using the BCA Protein Assay Kit (Thermo Fisher Scientific). Each 20 μg sample was separated using 10% SDS–PAGE and transferred onto a polyvinylidene fluoride membrane (Millipore, Burlington, MA, USA). Non-specific binding was blocked with 5% non-fat dry milk for 1 h. The membranes were incubated overnight with primary antibodies: Anti-Myf5 (Abcam, ab125078), Anti-Myf6 (Abcam, ab182842), Anti-MyoD (Santa Cruz, sc-377460), Anti-MyoG (Santa Cruz, sc-52903), Anti-α-actinin (Santa Cruz, sc-17829), Anti-MYH3 (Santa Cruz, sc-53091), Anti-p-mTOR (Ser2448) (CST, #5536), Anti-p-Akt (Ser473) (CST, #9271), Anti-p-p70 S6 Kinase (Thr389) (CST, #9205), Anti-myostatin (Abcam, ab124721), Anti-atrogin-1/MAFbx (Santa Cruz, sc-166806), and Anti-MuRF1 (Santa Cruz, sc-398608). Membranes were then incubated for 1 h with HRP-conjugated secondary antibodies. Blot images were captured with the ECL system (Amersham, UK) and quantified using ImageJ.

[3] = system: patients with muscle atrophy (ICD-10-CM code: M62.5); test: Clinical trial: handgrip strength (hand dynamometer); assay type: in vivo, human
Description: The study was conducted at Biosite Research Private Limited (Shanthipura, India) under the New Drugs and Clinical Trials Rules (2019) issued by CDSCO (Ministry of Health and Family Welfare, Government of India), and in compliance with GCP, applicable local regulatory requirements, the Declaration of Helsinki ([…]), ICMR guidelines (2017), and ICH-GCP E6 (R2). Ethical approval was obtained from the Excel Hospital Institutional Ethics Committee (ECR/1670/Inst/TG/2022) and ethics committees of other participating centers, and the trial was prospectively registered (CTRI/2024/01/061919). All participants provided written informed consent prior to any study procedures. Key eligibility criteria included adults aged ≥18 years with low muscle mass by DEXA (men: <7.0 kg/m^2; women: <5.4 kg/m^2) and either low handgrip strength (men: <28 kg; women: <18 kg) or low physical performance (6-m walk speed <1.0 m/s). Major exclusion criteria included uncontrolled systemic disease, musculoskeletal or neurological disorders, recent anabolic steroid use, and concomitant medications known to affect protein metabolism; full inclusion and exclusion criteria are provided in Supplementary Table S1. Of 89 patients screened, seven were screen failures and two withdrew prior to randomization; 80 eligible participants were enrolled and proceeded to the baseline/randomization visit (mean age 38.83 ± 9.91 years; range 23-69). […] The study was double-blind; participants, investigators, and study staff were unaware of treatment allocation throughout the trial. […] Efficacy endpoints were evaluated as changes from baseline to Week 12; efficacy analyses were conducted in the per-protocol population, and safety analyses included all randomized participants who received at least one dose of study product (Supplementary Figure S2). Of 80 randomized participants, 75 completed the study. Statistical analyses were performed using SAS (version 9.4; SAS Institute Inc., Cary, NC, USA). Continuous variables were summarized as N, mean (SD), median, minimum, and maximum, and categorical variables as n (%), with percentages calculated as n/N × 100. Changes from baseline to Week 12 in DEXA-assessed muscle mass, 6-m walk test, and handgrip strength were analyzed using ANCOVA, adjusting for the corresponding baseline value. Least-squares means (LSMs), 95% confidence intervals, and two-sided p-values were reported, with p < 0.05 considered statistically significant.

SPR binding to myostatin ([2]; seven concentrations, CM5 chip, 2210.3 RU immobilized, 30 μL/min, steady-state affinity fit, Kd not given): binds to Myostatin | response units (RUs) ([2]; SPR): increased dose-dependently
Substance: EAEYEHL-OH [Myoki]
Time to complete 6-meter walk test (TTC-6mWT), change from baseline to Week 12 (LS mean) ([1]; 200 mg peptide/day oral, N = 38, 95% CI (−1.36 to −0.87), placebo −0.77): -1.12 s | Time to complete 6-meter walk test, difference between placebo and treatment (95% CI) ([1]; Week 12, 200 mg/day, ANCOVA, p <0.01): -0.34 s | myotube differentiation (screening) (C2C12 cells): promoted myotube differentiation | DEX-induced activation of muscle protein degradation signaling, particularly atrogin-1/MAFbx upregulation (screening) (C2C12 cells; DEX): attenuated | association and dissociation ([2]; SPR): relatively rapid association and dissociation | MuRF1 expression (C2C12 myotubes): significantly and dose-dependently reduced | atrogin-1/MAFbx expression (C2C12 myotubes): significantly and dose-dependently reduced | expression levels of differentiated muscle fiber structural proteins (C2C12 myotubes): dose-dependently restored toward control levels | phosphorylation levels of muscle growth signaling proteins (Akt, mTOR, p70S6K) (C2C12 myotubes): dose-dependently restored toward control levels | Hand grip strength test (Left hand), change from baseline to Week 12 (LS mean) ([3]; 200 mg peptide/day oral, N = 38, 95% CI (0.77 to 1.37), placebo 0.81): 1.07 kg | Hand grip strength test (Right Hand), change from baseline to Week 12 (LS mean) ([3]; 200 mg peptide/day oral, N = 38, 95% CI (0.94 to 1.60), placebo 0.85): 1.27 kg | Hand grip strength test (Left hand), difference between placebo and treatment (95% CI) ([3]; Week 12, 200 mg/day, ANCOVA, p 0.02): 0.27 kg | Hand grip strength test (Right Hand), difference between placebo and treatment (95% CI) ([3]; Week 12, 200 mg/day, ANCOVA, p 0.04): 0.43 kg
